Key:
corn = assay: Test A pre-/postemergence herbicide test; format: in vivo, Zea mays; settings: Postemergence
Method in brief: (§1)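 Scoring was visual, relative to untreated controls, on a 0–100 scale after about 10 greenhouse days. Preemergence treatment used a directed soil spray over seeded loam/sand; postemergence treatment targeted one- to two-leaf plants of 2–10 cm.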

giant foxtail = assay: Test A pre-/postemergence herbicide test; format: in vivo, Setaria faberii; settings: for Plant response rating, Foxtail, Giant: 0 to 100 scale
Method in brief: as §1

rice = assay: Test B flooded paddy test; format: in vivo, Oryza sativa; settings: 1000 g ai/ha, Flood; scale of 0 to 100 where 0 is no effect and 100 is complete control
Method in brief: (§2)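 Paddy-water application at a 3 cm flood, young plants having two leaves. Water level maintained; greenhouse, 13–15 days; visual 0–100 control rating.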

pigweed = assay: Test A pre-/postemergence herbicide test; format: in vivo, Amaranthus retroflexus; settings: for Plant response rating, Pigweed: 0 to 100 scale
Method in brief: as §1

galium = assay: Test A postemergence herbicide test; format: in vivo, Galium aparine
Method in brief: (§3)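 Blackgrass and galium grown in pots of loam soil–sand blend, treated postemergence at 2–10 cm height, one- to two-leaf stage. Plants kept in greenhouse ~10 days, then visually rated for injury against untreated controls on a 0–100 scale (0 no effect, 100 complete control).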

ryegrass, Italian = assay: Test A pre-/postemergence herbicide test; format: in vivo, Lolium multiflorum; settings: for Plant response rating, Ryegrass, Italian: 0 to 100 scale
Method in brief: as §1

ragweed = assay: Test A pre-/postemergence herbicide test; format: in vivo, Ambrosia elatior; settings: for Plant response rating, Ragweed: 0 to 100 scale
Method in brief: as §1

sedge, umbrella = assay: Test B flooded paddy test; format: in vivo, Cyperus difformis; settings: 1000 g ai/ha, Flood; scale of 0 to 100 where 0 is no effect and 100 is complete control
Method in brief: as §2

wheat = assay: Test A pre-/postemergence herbicide test; format: in vivo, Triticum aestivum; settings: Postemergence
Method in brief: as §1

barnyardgrass [1] = assay: Test B flooded paddy test; format: in vivo, Echinochloa crus-galli; settings: 1000 g ai/ha, Flood; scale of 0 to 100 where 0 is no effect and 100 is complete control
Method in brief: as §2

blackgrass = assay: Test A postemergence herbicide test; format: in vivo, Alopecurus myosuroides
Method in brief: as §3

kochia = assay: Test A pre-/postemergence herbicide test; format: in vivo, Kochia scoparia; settings: for Plant response rating, Kochia: 0 to 100 scale
Method in brief: as §1

ducksalad = assay: Test B flooded paddy test; format: in vivo, Heteranthera limosa; settings: 1000 g ai/ha, Flood; scale of 0 to 100 where 0 is no effect and 100 is complete control
Method in brief: as §2

barnyardgrass [2] = assay: Test A pre-/postemergence herbicide test; format: in vivo, Echinochloa crus-galli; settings: for Plant response rating, Barnyardgrass: 0 to 100 scale
Method in brief: as §1

[3] = 125 g ai/ha, 0 to 100 scale, 0 is no effect, 100 is complete control
[4] = 125 g ai/ha, visual rating, 0 no effect, 100 complete control, approximately 10 days, preemergence
[5] = Postemergence, 125 g ai/ha, 0 is no effect, 100 is complete control
[6] = preemergence, 500 g ai/ha, 0 is no effect and 100 is complete control

## COc1ccc(C2CNC(=O)C2C(=O)Nc2cccc(F)c2F)cc1C(F)(F)F (stereo not drawn) [Compound 234]
corn; [3]
  Plant response rating, Corn: 0
corn; 500 g ai/ha
  Corn plant response rating (0 to 100 scale, 0 is no effect, 100 is complete control): 60
Giant foxtail; [4]
  Plant response rating, Foxtail, Giant: 70
Giant foxtail; [5]
  Plant response rating, Foxtail, Giant: 40
Giant foxtail; Postemergence, 500 g ai/ha
  Foxtail, Giant plant response rating (0 to 100 scale, 0 is no effect, 100 is complete control): 80
Giant foxtail; [6]
  Plant response rating, Foxtail, Giant: 90
rice
  Plant response rating, Rice: 0
pigweed; [4]
  Plant response rating, Pigweed: 0
pigweed; [5]
  Plant response rating, Pigweed: 0
pigweed; Postemergence, 500 g ai/ha
  Pigweed plant response rating (0 to 100 scale, 0 is no effect, 100 is complete control): 0
pigweed; [6]
  Plant response rating, Pigweed: 20
galium; [3]
  Plant response rating, Galium: 30
galium; 500 g ai/ha
  Galium plant response rating (0 to 100 scale, 0 is no effect, 100 is complete control): 50
ryegrass, Italian; [4]
  Plant response rating, Ryegrass, Italian: 30
ryegrass, Italian; [5]
  Plant response rating, Ryegrass, Italian: 20
ryegrass, Italian; Postemergence, 500 g ai/ha
  Ryegrass, Italian plant response rating (0 to 100 scale, 0 is no effect, 100 is complete control): 30
ryegrass, Italian; [6]
  Plant response rating, Ryegrass, Italian: 30
ragweed; [4]
  Plant response rating, Ragweed: 0
ragweed; [5]
  Plant response rating, Ragweed: 0
ragweed; Postemergence, 500 g ai/ha
  Ragweed plant response rating (0 to 100 scale, 0 is no effect, 100 is complete control): 0
ragweed; [6]
  Plant response rating, Ragweed: 20
sedge, umbrella
  Plant response rating, Sedge, Umbrella: 0
wheat; [3]
  Plant response rating, Wheat: 0
wheat; 500 g ai/ha
  Wheat plant response rating (0 to 100 scale, 0 is no effect, 100 is complete control): 40
Barnyardgrass [1]
  Plant response rating, Barnyardgrass: 75
blackgrass; [3]
  Plant response rating, Blackgrass: 0
blackgrass; 500 g ai/ha
  Blackgrass plant response rating (0 to 100 scale, 0 is no effect, 100 is complete control): 30
kochia; [4]
  Plant response rating, Kochia: 20
kochia; [5]
  Plant response rating, Kochia: 0
kochia; Postemergence, 500 g ai/ha
  Kochia plant response rating (0 to 100 scale, 0 is no effect, 100 is complete control): 30
kochia; [6]
  Plant response rating, Kochia: 50
ducksalad
  Plant response rating, Ducksalad: 85
Barnyardgrass [2]; [4]
  Plant response rating, Barnyardgrass: 60
Barnyardgrass [2]; [5]
  Plant response rating, Barnyardgrass: 60
Barnyardgrass [2]; Postemergence, 500 g ai/ha
  Barnyardgrass plant response rating (0 to 100 scale, 0 is no effect, 100 is complete control): 90
Barnyardgrass [2]; [6]
  Plant response rating, Barnyardgrass: 90

From patent publication US10294202B2, “Pyrrolidinones as herbicides” (FMC Corporation, priority 2013, dated 2019)
